Measured values as given in patent EP4400508A1, “ACTIVE PEPTIDE AND USE THEREOF” (Harvest Biotech Co., Ltd, priority 2021, dated 2024).
No end group written: not given here.

Tested on: Chicken Embryo
Test: Chicken embryo safety test (HET-CAM, SN/T 2329-2009), irritation score method
Conditions: dose up to 500 ppm

Sequence: ESETRILLQ [EQ-9, ESETRILLQ]
- Irritation Classification (HET-CAM): non-irritant
- irritation score (IS) (HET-CAM): 0.35
- safety issue (FIG. 1): no safety issue
